Source: publication PMC7282810, “Existence and functions of a kisspeptin neuropeptide signaling system in a non-chordate deuterostome species” (eLife, 2020)
Entries after “also recorded” stand apart in the source; their conditions may differ. Read-outs that look alike come from different tables or passages of the source. Where a SMILES comes first, the peptide text is derived from it. Bridges are numbered along the chain shown (N, C = ends).

How the values were obtained:
AjKissR1 [1] = biological target: T1, AjKissR1 (Apostichopus japonicus, UniProt A0A5B7LK60); assay: cell-based; type: cell-based
T1 sequence (A0A5B7LK60 1-378): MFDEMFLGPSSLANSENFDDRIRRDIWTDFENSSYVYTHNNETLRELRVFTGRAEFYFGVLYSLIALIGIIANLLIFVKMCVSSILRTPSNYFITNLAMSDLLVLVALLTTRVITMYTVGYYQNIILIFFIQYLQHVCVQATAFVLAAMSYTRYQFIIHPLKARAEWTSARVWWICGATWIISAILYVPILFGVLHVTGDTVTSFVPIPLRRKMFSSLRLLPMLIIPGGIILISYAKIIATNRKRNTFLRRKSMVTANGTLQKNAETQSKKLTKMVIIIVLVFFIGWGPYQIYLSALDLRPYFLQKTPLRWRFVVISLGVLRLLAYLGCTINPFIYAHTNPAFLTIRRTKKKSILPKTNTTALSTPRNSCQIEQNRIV
Procedure: (§1) The fluorescent Ca^2+ indicator Fura-2/AM was used to detect intracellular calcium flux ([Li et al., 2010]). Briefly, the HEK293 cells expressing the AjKissR1, AjKissR2 or vertebrate kisspeptin receptor were washed twice with PBS and suspended at 5 × 10^6 cells/mL in Hanks’ balanced salt solution. The cells were then loaded with 3.0 μM Fura-2/AM for 30 min and washed twice in Hanks’ solution. They were then stimulated with the indicated concentrations of different predicted A. japonicus kisspeptins or vertebrate kisspeptins. Finally, intracellular calcium flux was measured for 60 s, by determining the ratio of excitation wavelengths at 340 and 380 nm using a fluorescence spectrometer (Infinite 200 PRO, Tecan, Männedorf, Switzerland). All of the experiments for measuring Ca^2+ mobilization were repeated independently at least three times.

AjKissR2 [2] = biological target: T2, AjKissR2 (Apostichopus japonicus, UniProt A0A5B7LIE4); assay: cell-based; type: cell-based; details: for AUC: Ca2+ trace area under curve, HEK293/AjKissR2
T2 sequence (A0A5B7LIE4 1-327): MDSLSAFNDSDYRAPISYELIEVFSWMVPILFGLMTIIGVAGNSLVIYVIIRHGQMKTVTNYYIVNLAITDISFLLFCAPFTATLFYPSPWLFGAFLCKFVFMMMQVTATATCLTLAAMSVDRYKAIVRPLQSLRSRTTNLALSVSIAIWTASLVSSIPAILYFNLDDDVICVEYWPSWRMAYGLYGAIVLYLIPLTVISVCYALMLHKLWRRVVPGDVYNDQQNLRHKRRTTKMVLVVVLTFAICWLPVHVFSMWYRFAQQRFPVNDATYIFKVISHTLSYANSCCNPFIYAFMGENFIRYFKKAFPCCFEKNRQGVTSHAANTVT
Procedure: as §1

[3] = system: human kisspeptin receptor (HsKiss1R); assay: Intracellular Ca2+ mobilization (Fura-2/AM) in HsKiss1R-expressing HEK293 cells; type: cell-based; details: 1.0 μM peptide, HEK293, Fura-2/AM
Procedure: as §1

[4] = system: zebrafish kisspeptin receptor DrKiss1Ra; assay: Intracellular Ca2+ mobilization (Fura-2/AM) in DrKiss1Ra-expressing HEK293 cells; type: cell-based; details: 1.0 μM peptide, HEK293, Fura-2/AM
Procedure: as §1

[5] = system: zebrafish kisspeptin receptor DrKiss1Rb; assay: Intracellular Ca2+ mobilization (Fura-2/AM) in DrKiss1Rb-expressing HEK293 cells; type: cell-based; details: 1.0 μM peptide, HEK293, Fura-2/AM
Procedure: as §1

AjKissR1 [6] = biological target: T1, AjKissR1; assay: Ligand competition binding assay (FITC-AjKiss1a, FACS), HEK293/AjKissR1; details: 1.0 μM FITC-AjKiss1a, read-out: IC50 (competitive displacement of FITC-AjKiss1a)
Procedure: (§2) A fluorescence-activated cell sorter (FACS) was used to detect the binding ability of kisspeptins with AjKissR1 or AjKissR2. HEK293 cells expressing FLAG–AjKissR1 or FLAG–AjKissR2 were washed with PBS that contained 0.2% bovine serum albumin (FACS buffer). We designed and synthesized an N-terminal FITC-labeled AjKiss1a peptide (see 'Key resources table'). Different kisspeptins were diluted in the FACS buffer to different concentrations, then added to cells that were incubated on ice for 60–90 min. Cells were washed thrice with the FACS buffer and re-suspended in the FACS buffer with 1% paraformaldehyde for 15 min. The binding activity of the indicated kisspeptin peptides with AjKissR1 or AjKissR2 was determined by measuring the fluorescence of FITC and was presented as a percentage of total binding.

AjKissR2 [7] = biological target: T2, AjKissR2; assay: Ligand competition binding assay (FITC-AjKiss1a, FACS), HEK293/AjKissR2; details: 1.0 μM FITC-AjKiss1a, read-out: IC50 (competitive displacement of FITC-AjKiss1a)
Procedure: as §2

AjKissR2-EGFP = assay: Receptor internalization (translocation) by confocal microscopy, AjKissR2-EGFP; type: cell-based, Apostichopus japonicus; details: 1.0 μM ligand, 60 min
Procedure: For receptor-surface expression analysis, HEK293 cells expressing AjKissR1/2-EGFP were seeded onto glass coverslips in 12-well plates, coated with 0.1 mg/mL poly-L-lysine, and allowed to attach overnight under normal growth conditions ([Li et al., 2010]). The cells were washed three times with PBS and further stained with the membrane probe DiI (Beyotime) at 37°C for 5–10 min, fixed with 4% paraformaldehyde for 10 min, and then incubated with DAPI (Beyotime) for 5–10 min. For the translocation assays, the receptor-expressing cells were treated with 1.0 μM of various stimuli for 60 min, washed three times with PBS and then fixed with 4% paraformaldehyde in PBS for 10 min at room temperature. Finally, the cells were mounted in mounting reagent (DTT/PBS/glycerol, 1:8:2) and visualized by fluorescence microscopy on a Zeiss laser scanning confocal microscope, which was attached to a Zeiss Axiovert 200 microscope and linked to an LSM5 computer system.

AjKissR2 [8] = biological target: T2, AjKissR2; type: cell-based; details: Ca2+ trace (Fura-2/AM) area under curve, AjKiss1a at Log[M] -10 (100 pM), HEK293/AjKissR2, 68 s trace
[9] = fit of AUC vs Log[AjKiss1a]M, source data Figure 3B1
[10] = log(agonist) vs. response (three parameters) fit of AUC, AjKiss1a on AjKissR2, 5 points

CC(C)C[C@H](NC(=O)[C@H](CO)NC(=O)CNC(=O)[C@H](C)N)C(=O)N[C@@H](CC(=O)O)C(=O)N[C@H]1CSSC[C@@H](C(=O)N[C@@H](CCC(=O)O)C(=O)N[C@@H](CC(=O)O)C(=O)N[C@H](C(=O)N[C@@H](CCC(=O)O)C(=O)N[C@@H](CCCNC(=N)N)C(=O)N[C@@H](CCCNC(=N)N)C(=O)NCC(=O)N[C@@H](CCCNC(=N)N)C(=O)N[C@@H](CCC(N)=O)C(=O)N2CCC[C@H]2C(=O)N[C@@H](CC(N)=O)C(=O)N[C@@H](CCCNC(=N)N)C(=O)N[C@@H](CC(N)=O)C(=O)N[C@@H](C)C(=O)N[C@@H](Cc2c[nH]cn2)C(=O)N[C@@H](Cc2ccc(O)cc2)C(=O)N[C@@H](CCCNC(=N)N)C(=O)N[C@H](C(=O)N[C@@H](CC(C)C)C(=O)N2CCC[C@H]2C(=O)N[C@@H](Cc2ccccc2)C(N)=O)[C@@H](C)O)C(C)C)NC(=O)[C@H](CO)NC(=O)[C@H](C)NC(=O)[C@H](CCC(=O)O)NC(=O)[C@H](CC(C)C)NC1=O [AjKiss1a] (H-AGSLDCLEASCEDVERRGRQPNRNAHYRTLPF-NH2; disulfide 6-11)
EC50 (AjKissR1 [1]): 80.8 nM
AUC (Ca2+ mobilization) (AjKissR1 [1]; Log[AjKiss1a]M -6): 18.82
AUC (Ca2+ mobilization) (AjKissR1 [1]; Log[AjKiss1a]M -7): 12.93
AUC (Ca2+ mobilization) (AjKissR1 [1]; Log[AjKiss1a]M -8): 8.793
AUC (Ca2+ mobilization) (AjKissR1 [1]; Log[AjKiss1a]M -9): 6.715
AUC (Ca2+ mobilization) (AjKissR1 [1]; Log[AjKiss1a]M -10): 4.474
Bottom (best-fit value) (AjKissR1 [1]; [9]): 5.962
LogEC50 (best-fit value) (AjKissR1 [1]; [9]): -7.093
Span (best-fit value) (AjKissR1 [1]; [9]): 13.69
Top (best-fit value) (AjKissR1 [1]; [9]): 19.65
EC50 (AjKissR2 [2]): 1.98 nM
AUC (AjKissR2 [2]; AjKiss1a at Log[M] -6 (1 μM)): 24.14
AUC (AjKissR2 [2]; AjKiss1a at Log[M] -7 (100 nM)): 24.83
AUC (AjKissR2 [2]; AjKiss1a at Log[M] -8 (10 nM)): 24.2
AUC (AjKissR2 [2]; AjKiss1a at Log[M] -9 (1 nM)): 11.14
Bottom (best-fit value) (AjKissR2 [2]; [10]): 6.057
Span (best-fit value) (AjKissR2 [2]; [10]): 19.28
Top (best-fit value) (AjKissR2 [2]; [10]): 25.34
LogEC50 (best-fit value) (AjKissR2 [2]; log(agonist) vs. response (three parameters) fit of AUC, Log[AjKiss1a]M, AjKissR2, 5 points): -8.703
Activation of HsKiss1R, Ca2+ mobilization (in words) [3]: could activate; also recorded: could potentiate
Activation of DrKiss1Ra, Ca2+ mobilization (in words) [4]: could activate; also recorded: could potentiate
Activation of DrKiss1Rb, Ca2+ mobilization (in words) [5]: could activate; also recorded: could potentiate
IC50 (AjKissR1 [6]): 568 nM
IC50 (AjKissR2 [7]): 95.2 nM
Internalization of AjKissR2-EGFP from the plasma membrane to the cytoplasm (in words) (AjKissR2-EGFP): significant internalization
AUC (AjKissR2 [8]): 7.592
